The values below come from US11622951B2, “Alpha-aminoadipate for treatment of vision loss and restoring sight” (The Schepens Eye Research Institute, Inc., priority 2013, dated 2023).

“Also recorded” adds a separate entry of the source.

The subject of data set [1] is grafted retinal progenitor cells. In words: Integration of grafted EGFP+ retinal progenitor cells into pretreated wild-type host retina. The data set is classed as in vivo, mouse. As for the experimental part: (§1) Mice were anesthetized by intraperitoneal injection of ketamine (62.5 mg/kg) and xylazine (12.5 mg/kg) and transcardially perfused with phosphate buffered saline (PBS) followed by 4% paraformaldehyde in PBS. Retinal flat-mounts or transverse retinal sections (14 μm) were preblocked with PBS containing 3% bovine serum albumin (Sigma-Aldrich, St. Louis, Mo.) and 0.3% Triton X (Sigma-Aldrich) and incubated, first, with primary antibody overnight, and then with secondary antibody for 1 hour at room temperature. The following antibodies were used: Cy3-conjugated monoclonal antibody against GFAP (1:1000; Sigma), Brn-3b (1:200; Santa Cruz Biotechnology; Santa Cruz, Calif.), mouse anti-rhodopsin (1:4000; Rho1D4), chick anti-cone-opsin (1:300), and Cy-2, Cy-3 or Cy-5-conjugated secondary antibody (Jackson ImmunoResearch; West Grove, Pa.). Assessment of morphological integration were quantified by counting EGFP+ cells located outside of transplanted cell clusters in retinal whole-mounts. Statistical significance was determined by either the two tailed student t test or ANOVA.
At 2 days before transplantation, 2 μl of a solution containing either α-AA (1 μg/μl) or saline (control) was injected unilaterally into the subretinal space of recipient wild-type or Gnat1^−/− mice (>2 months old). The procedure for donor cell preparation was essentially as described by Kinouchi et al, 2003, Nat Neurosci, 6:863-868. Briefly, retinal progenitor cells were isolated from postnatal day 0 (P0) EGFP transgenic mice. […]
If transient disruption of retinal glia with α-AA promotes morphological integration of grafted retinal progenitors in vivo was next investigated. […] Thus, in the following studies, cell transplantation was performed at day 2 after α-AA pretreatment when temporal disruption of residential glial structure by α-AA was detected that effectively ameliorates the host barrier to cell integration and promotes grafted cell migration into the host retina.

The test system of data set [2] is retinal neurons. The data set is described as follows: Retinal neuron morphology and lamina structure after injection (electron microscopy, Nissl, recoverin, syntaxin). The format is in vivo, mouse. As for the experimental part: as §1
Mice were sacrificed 3 days after receiving the injection of α-AA (1 μg/μl) or saline as controls by injection of overdose of ketamine/xylazine followed by cervical dislocation, and the eyeballs were dissected, fixed with Karnovsky's fixative (pH 7.4) for 24 h. The quadrants of the eyes that received subretinal injection were dissected and embedded in Epon-Araldite. Semi-thin sections (1-2 μm) were stained with phenylenediamine phase staining. The sections were examined and photographed with a transmission electron microscope (EM410; Philips; Eindhoven, The Netherlands). Ten randomly selected retinal sections of each eye were photographed at 1900× magnification, and all Müller glial nuclei in the photomicrograph were counted.
Retinal sections were examined under electron microscopy, in which Müller glia were identified by their characteristic angular nuclei, dense chromatin and dark perinuclear cytoplasm (FIG. 1e-h). […]

The subject of data set [3] is GFAP. The data set is described as follows: Western blot of GFAP expression in injected retinas. The format is in vivo, mouse. The method, then: To determine the effect of α-AA on retinal glial cells, mouse retinas were dissected and homogenized in lysis buffer 3% sodium dodecyl sulfate (Sigma-Aldrich), 0.3 M sucrose (Sigma-Aldrich), 1 mM orthovanadium (Sigma-Aldrich)]. Protein concentrations were determined with a BCA assay (Pierce; Rockford, Ill.). Protein (20 μg) was loaded on a 10% sodium dodecyl sulfate-polyacrylamide gel and transferred to a nitrocellulose membrane. The blot was blocked in 1% bovine serum albumin (Sigma-Aldrich) and 4% dry milk in PBS and probed with primary antibodies against GFAP (1:1000; Chemicon; Temecula, Calif.) and β-actin (Sigma-Aldrich) as loading controls. After incubation with appropriate secondary antibodies conjugated to horseradish peroxidase (Jackson Immunochemicals; West Grove, Pa.), detection was performed with Super Signal West Pico (Pierce). Retinal astrocytes and Müller glia are central to the homeostatic and metabolic support of retinal neurons; whereas, after injury these cells develop glial scar that forms critical barriers to neuron regeneration and integration by retinal progenitor cells. […] Retinal glial morphology was examined by immunolabeling for glial marker GFAP and assessed the level of GFAP expression by Western blot at day 1-7 post injection. Expression of GFAP is widely detected in the normal mouse retinas (FIG. 1a).

Data set [4] concerns Muller cells. Conditions: wild-type mice with normal retinas, Takeda et al. 2009; cited from earlier work.
In data set [5] the test system is cone photoreceptor function. The data set is described as follows: Flicker ERG under cone-isolation conditions in Rho-/- mice. Conditions: Rho-/- mice injected subretinally at 6 weeks old, 4 weeks later, vs saline contralateral eye. The data set is classed as in vivo, mouse. The method, then:
Mice carrying rhodopsin deficiency (Rho^−/−) were used to determine if injection of alpha-aminoadipate (αAA) is sufficient to induce neuroregeneration from endogenous retinal progenitors, e.g., Muller cells, leading to preservation and restoration of photoreceptor cell function. Light-evoked photoreceptor responses and retinal functions in Rho^−/− mice that received αAA or saline injection were assessed using ERGS and whole cell-attached patch clamp.
To determine if αAA induces functional neuroregeneration in Rho^−/− mice, αAA was injected subretinally into the left eyes of 6 week-old Rho^−/− mice, while their contralateral eyes were injected with saline and served as controls. After a 4 week survival period to allow regeneration of new photoreceptors, mouse ERG was measured in both eyes and then performed immunohistochemistry to identify photoreceptor cells. Rho^−/− mice lack the rod photoreceptor cell component or ERG a-wave. As cones consist of ˜3% of photoreceptors in mice, it is difficult to assess cone action a-wave; therefore, flicker ERG photometry under cone-isolation conditions was used to measure cone functions. […]

As to `NC(CCCC(=O)O)C(=O)O` (stereo not drawn) [α-AA, alpha-aminoadipate], the “number of cells repopulated the host retina” value in data set [1] (transplantation performed after day 5 post treatment) is “drastically diminished”. For the same compound, the “increase in number of engrafted cells bearing long neurites (>3 body length)” value in data set [1] (wild-type hosts, three weeks post transplantation, vs saline-treated or untreated retinas) is 7-11 fold. In addition, the “increase in the number of EGFP+ cells repopulated into the host retina” value in data set [1] (wild-type hosts, transplantation day 2 after pretreatment, three weeks post transplantation, vs saline-treated or untreated retinas) is listed as 3-5 fold. The “retinal neuron morphology (electron microscopy)” value in data set [2] (3 days after subretinal injection) is “No abnormality in retinal neuron morphology”. In addition, the “morphology and lamina structure (recoverin, syntaxin immunolabeling)” value in data set [2] (day 3 after injection, vs saline-injected controls) is on record as “No apparent changes; also recorded: No significant difference”. Moreover, in data set [2] (mouse, in vivo), the neuronal toxicity result is reported as “No neuronal toxicity”. Also, the “GFAP expression, Western blot quantification” value was “returned to a control level” in data set [3] (by day 7 post injection) and “significant downregulation” in data set [3] (day 3 post injection, vs normal or saline-injected controls). Moreover, the “Muller cell proliferation in the retina” value in data set [4] is listed as “can stimulate Muller cell proliferation”. Also, the “ERG b-wave (flicker ERG)” value in data set [5] was “sizable b-wave”.
